Results reported in BindingDB's records for patent US10508104 (Bristol Myers Squibb, 2019).

Target: T1, Apelin receptor (Homo sapiens, UniProt P35414)
T1 sequence (P35414 whole entry): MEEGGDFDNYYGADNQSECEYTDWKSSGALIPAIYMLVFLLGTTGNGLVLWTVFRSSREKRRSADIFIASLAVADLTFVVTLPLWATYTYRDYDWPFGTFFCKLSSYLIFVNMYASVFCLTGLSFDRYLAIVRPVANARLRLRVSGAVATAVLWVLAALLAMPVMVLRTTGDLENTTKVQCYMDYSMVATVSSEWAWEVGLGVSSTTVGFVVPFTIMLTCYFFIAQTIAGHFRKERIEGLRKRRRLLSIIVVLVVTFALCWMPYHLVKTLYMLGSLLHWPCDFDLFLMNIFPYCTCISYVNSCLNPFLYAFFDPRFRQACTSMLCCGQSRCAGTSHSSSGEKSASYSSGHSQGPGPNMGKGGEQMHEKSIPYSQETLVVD
Assay: Intracellular cAMP Accumulation Assay
Experimental: HEK293 cells stably expressing human APJ receptor were used to assess the activity of compounds. Cultured cells were detached and resuspended in the cAMP Homogeneous Time-Resolved Fluorescence (HTRF) assay buffer (Cisbio cat; #62AM4PEJ). […] Serial dilutions of a compound together with assay buffer containing […] and 2 μM forskolin were added to each well containing 5,000 cells and incubated for 30 minutes at room temperature. Subsequently, cAMP D2 reagent was added in the lysis buffer followed by the EuK antibody (Cisbio; cat #62AM4PEJ) and incubated for 60 min. The fluorescence emission ratio was measured using fluorometer. The intracellular cAMP concentrations (compound-stimulated inhibition of forskolin-mediated cAMP production) were calculated by extrapolation from a standard curve using known cAMP concentrations. The EC50 values were obtained by fitting the data to a sigmoidal concentration-response curve with variable slope.

EC50: in the range around 5 nM
Structure (SMILES): CCCCC1NC(=O)C(S(=O)(=O)c2ccc(-c3ccnc(F)c3C)cc2)=C(O)N1[C@@H](CC)c1cccc(OC)c1 (stereo partly specified) [US10508104, Example 169]
